According to patent US20100267561A1, “HERBICIDAL PYRIDAZINONE DERIVATIVES” (priority 2007, published 2010):

What was measured:
Assay type in all cases: in vivo
[1] = system: barnyardgrass (Echinochloa crus-galli); experiment: Test A pre-/postemergence plant response
How it was run: (§1)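 Ratings are visual, 0–100, where 100 means complete control and 0 no effect, taken roughly 10 days after treatment by comparison with untreated controls. Formulation: non-phytotoxic solvent mixture with surfactant.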

corn (Zea mays) = experiment: Test A pre-/postemergence plant response
How it was run: as §1

[2] = system: giant foxtail (Setaria faberi); experiment: Test A pre-/postemergence plant response
How it was run: as §1

[3] = system: large crabgrass (Digitaria sanguinalis); experiment: Test A pre-/postemergence plant response
How it was run: as §1

[4] = system: morningglory (Ipomoea coccinea); experiment: Test A pre-/postemergence plant response
How it was run: as §1

[5] = system: pigweed (Amaranthus retroflexus); experiment: Test A pre-/postemergence plant response
How it was run: as §1

[6] = system: velvetleaf (Abutilon theophrasti); experiment: Test A pre-/postemergence plant response
How it was run: as §1

[7] = system: wheat (Triticum aestivum); experiment: Test A pre-/postemergence plant response
How it was run: as §1

[8] = system: barnyardgrass (Echinochloa crus-galli); experiment: Test B flooded paddy test plant response
How it was run: (§2)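 Rice, umbrella sedge, ducksalad and barnyardgrass at 2-leaf stage; pots flooded to 3 cm, compounds applied into paddy water, depth held throughout. Greenhouse 13 to 15 days, then visual rating vs untreated controls on 0–100 scale (0 no effect, 100 complete control); dash means no test result.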

[9] = system: ducksalad (Heteranthera limosa); experiment: Test B flooded paddy test plant response
How it was run: as §2

rice (Oryza sativa) = experiment: Test B flooded paddy test plant response
How it was run: as §2

[10] = system: umbrella sedge (Cyperus difformis); experiment: Test B flooded paddy test plant response
How it was run: as §2

[11] = Postemergence, 31 g ai/ha, 0 to 100 scale (0 no effect, 100 complete control)
[12] = Postemergence, 125 g ai/ha, 0 to 100 scale, 0 no effect, 100 complete control
[13] = Preemergence, 31 g ai/ha, 0 to 100 scale, 0 is no effect, 100 is complete control
[14] = Preemergence, 125 g ai/ha, 0 to 100 scale (0 no effect, 100 complete control)
[15] = Flood (flooded paddy test), 62 g ai/ha, scale 0 to 100, 0 no effect, 100 complete control
[16] = Flood (flooded paddy test), 125 g ai/ha, scale 0 to 100, 0 no effect, 100 complete control
[17] = Flood (flooded paddy test), 250 g ai/ha, scale 0 to 100, 0 no effect, 100 complete control
[18] = Flood, 31 g ai/ha, scale 0 to 100

## Cc1cc(-c2ccc(Cl)cc2)nn1-c1c(OS(=O)(=O)c2ccccc2[N+](=O)[O-])cnn(C)c1=O [Compound 51]
[1]; [11]
  Plant response rating, Barnyardgrass: 20
[1]; [12]
  Plant response rating, Barnyardgrass: 80
[1]; [13]
  Plant response rating, Barnyardgrass: 80
[1]; [14]
  Plant response rating, Barnyardgrass: 100
Corn (Zea mays); [11]
  Plant response rating, Corn: 20
Corn (Zea mays); [12]
  Plant response rating, Corn: 60
Corn (Zea mays); [13]
  Plant response rating, Corn: 20
Corn (Zea mays); [14]
  Plant response rating, Corn: 80
[2]; [11]
  Plant response rating, Foxtail, Giant: 20
[2]; [12]
  Plant response rating, Foxtail, Giant: 70
[2]; [13]
  Plant response rating, Foxtail, Giant: 90
[2]; [14]
  Plant response rating, Foxtail, Giant: 100
[3]; [11]
  Plant response rating, Crabgrass, Large: 20
[3]; [12]
  Plant response rating, Crabgrass, Large: 70
[3]; [13]
  Plant response rating, Crabgrass, Large: 90
[3]; [14]
  Plant response rating, Crabgrass, Large: 100
[4]; [11]
  Plant response rating, Morningglory: 0
[4]; [12]
  Plant response rating, Morningglory: 0
[4]; [13]
  Plant response rating, Morningglory: 0
[4]; [14]
  Plant response rating, Morningglory: 0
[5]; [11]
  Plant response rating, Pigweed: 0
[5]; [12]
  Plant response rating, Pigweed: 0
[5]; [14]
  Plant response rating, Pigweed: 0
[6]; [11]
  Plant response rating, Velvetleaf: 0
[6]; [12]
  Plant response rating, Velvetleaf: 0
[6]; [13]
  Plant response rating, Velvetleaf: 0
[6]; [14]
  Plant response rating, Velvetleaf: 0
[7]; [11]
  Plant response rating, Wheat: 0
[7]; [12]
  Plant response rating, Wheat: 40
[7]; [13]
  Plant response rating, Wheat: 40
[7]; [14]
  Plant response rating, Wheat: 80
[8]; [15]
  Plant response rating, Barnyardgrass: 0
[8]; [16]
  Plant response rating, Barnyardgrass: 10
[8]; [17]
  Plant response rating, Barnyardgrass: 30
[8]; [18]
  Plant response rating, Barnyardgrass: 0
[9]; [15]
  Plant response rating, Ducksalad: 0
[9]; [16]
  Plant response rating, Ducksalad: 0
[9]; [17]
  Plant response rating, Ducksalad: 0
[9]; [18]
  Plant response rating, Ducksalad: 0
Rice (Oryza sativa); [15]
  Plant response rating, Rice: 0
Rice (Oryza sativa); [16]
  Plant response rating, Rice: 0
Rice (Oryza sativa); [17]
  Plant response rating, Rice: 0
Rice (Oryza sativa); [18]
  Plant response rating, Rice: 0
[10]; [15]
  Plant response rating, Sedge, Umbrella: 40
[10]; [16]
  Plant response rating, Sedge, Umbrella: 60
[10]; [17]
  Plant response rating, Sedge, Umbrella: 70
[10]; [18]
  Plant response rating, Sedge, Umbrella: 0

## Cc1cc(-c2ccc(Cl)cc2)nn1-c1c(OC(=O)OCC(C)C)cnn(C)c1=O [Compound 57]
[1]; [11]
  Plant response rating, Barnyardgrass: 0
[1]; [12]
  Plant response rating, Barnyardgrass: 80
[1]; [13]
  Plant response rating, Barnyardgrass: 60
[1]; [14]
  Plant response rating, Barnyardgrass: 100
Corn (Zea mays); [11]
  Plant response rating, Corn: 0
Corn (Zea mays); [12]
  Plant response rating, Corn: 60
Corn (Zea mays); [13]
  Plant response rating, Corn: 0
Corn (Zea mays); [14]
  Plant response rating, Corn: 50
[2]; [11]
  Plant response rating, Foxtail, Giant: 0
[2]; [12]
  Plant response rating, Foxtail, Giant: 90
[2]; [13]
  Plant response rating, Foxtail, Giant: 90
[2]; [14]
  Plant response rating, Foxtail, Giant: 100
[3]; [11]
  Plant response rating, Crabgrass, Large: 0
[3]; [12]
  Plant response rating, Crabgrass, Large: 80
[3]; [13]
  Plant response rating, Crabgrass, Large: 50
[3]; [14]
  Plant response rating, Crabgrass, Large: 100
[4]; [11]
  Plant response rating, Morningglory: 0
[4]; [12]
  Plant response rating, Morningglory: 0
[4]; [13]
  Plant response rating, Morningglory: 0
[4]; [14]
  Plant response rating, Morningglory: 0
[5]; [11]
  Plant response rating, Pigweed: 0
[5]; [12]
  Plant response rating, Pigweed: 0
[5]; [13]
  Plant response rating, Pigweed: 0
[5]; [14]
  Plant response rating, Pigweed: 0
[6]; [11]
  Plant response rating, Velvetleaf: 0
[6]; [12]
  Plant response rating, Velvetleaf: 0
[6]; [13]
  Plant response rating, Velvetleaf: 0
[6]; [14]
  Plant response rating, Velvetleaf: 0
[7]; [11]
  Plant response rating, Wheat: 0
[7]; [12]
  Plant response rating, Wheat: 50
[7]; [13]
  Plant response rating, Wheat: 0
[7]; [14]
  Plant response rating, Wheat: 70
[8]; [15]
  Plant response rating, Barnyardgrass: 0
[8]; [16]
  Plant response rating, Barnyardgrass: 0
[8]; [17]
  Plant response rating, Barnyardgrass: 0
[8]; [18]
  Plant response rating, Barnyardgrass: 0
[9]; [15]
  Plant response rating, Ducksalad: 0
[9]; [16]
  Plant response rating, Ducksalad: 0
[9]; [17]
  Plant response rating, Ducksalad: 70
Rice (Oryza sativa); [15]
  Plant response rating, Rice: 0
Rice (Oryza sativa); [16]
  Plant response rating, Rice: 10
Rice (Oryza sativa); [17]
  Plant response rating, Rice: 15
Rice (Oryza sativa); [18]
  Plant response rating, Rice: 0
[10]; [15]
  Plant response rating, Sedge, Umbrella: 65
[10]; [16]
  Plant response rating, Sedge, Umbrella: 75
[10]; [17]
  Plant response rating, Sedge, Umbrella: 80
[10]; [18]
  Plant response rating, Sedge, Umbrella: 45

## C#CCOC(=O)Oc1cnn(C)c(=O)c1-n1nc(-c2ccc(Cl)cc2)cc1C [Compound 58]
[1]; [11]
  Plant response rating, Barnyardgrass: 0
[1]; [12]
  Plant response rating, Barnyardgrass: 80
[1]; [13]
  Plant response rating, Barnyardgrass: 50
[1]; [14]
  Plant response rating, Barnyardgrass: 100
Corn (Zea mays); [11]
  Plant response rating, Corn: 0
Corn (Zea mays); [12]
  Plant response rating, Corn: 60
Corn (Zea mays); [13]
  Plant response rating, Corn: 0
Corn (Zea mays); [14]
  Plant response rating, Corn: 20
[2]; [11]
  Plant response rating, Foxtail, Giant: 20
[2]; [12]
  Plant response rating, Foxtail, Giant: 90
[2]; [13]
  Plant response rating, Foxtail, Giant: 90
[2]; [14]
  Plant response rating, Foxtail, Giant: 100
[3]; [11]
  Plant response rating, Crabgrass, Large: 0
[3]; [12]
  Plant response rating, Crabgrass, Large: 70
[3]; [13]
  Plant response rating, Crabgrass, Large: 60
[3]; [14]
  Plant response rating, Crabgrass, Large: 90
[4]; [11]
  Plant response rating, Morningglory: 0
[4]; [12]
  Plant response rating, Morningglory: 0
[4]; [13]
  Plant response rating, Morningglory: 0
[4]; [14]
  Plant response rating, Morningglory: 0
[5]; [11]
  Plant response rating, Pigweed: 0
[5]; [12]
  Plant response rating, Pigweed: 0
[5]; [13]
  Plant response rating, Pigweed: 0
[5]; [14]
  Plant response rating, Pigweed: 0
[6]; [11]
  Plant response rating, Velvetleaf: 0
[6]; [12]
  Plant response rating, Velvetleaf: 0
[6]; [13]
  Plant response rating, Velvetleaf: 0
[6]; [14]
  Plant response rating, Velvetleaf: 0
[7]; [11]
  Plant response rating, Wheat: 0
[7]; [12]
  Plant response rating, Wheat: 60
[7]; [13]
  Plant response rating, Wheat: 20
[7]; [14]
  Plant response rating, Wheat: 70
[8]; [15]
  Plant response rating, Barnyardgrass: 30
[8]; [17]
  Plant response rating, Barnyardgrass: 70
[9]; [15]
  Plant response rating, Ducksalad: 0
[9]; [17]
  Plant response rating, Ducksalad: 45
Rice (Oryza sativa); [15]
  Plant response rating, Rice: 0
Rice (Oryza sativa); [17]
  Plant response rating, Rice: 60
[10]; [15]
  Plant response rating, Sedge, Umbrella: 0
[10]; [17]
  Plant response rating, Sedge, Umbrella: 0
